Measurements taken from patent EP0840602B1, “USE OF A RETINOID FOR PREPARING AN ANTIBACTERIAL DRUG” (Pierre Fabre Dermo-Cosmetique, priority 1995, dated 1997).

Tests used:
St. aureus [1] = assay: Minimal inhibitory concentration (CMI), broth microdilution in microplates; type: cell-based, Staphylococcus aureus; details: 10^6 germes par ml, 24 h at 32° C, first line of each compound in the table
Experimental: (§1) • Staphylococcus aureus 6538 P • Staphylococcus aureus de pathologies cutanées isolées de l'hôpital Rangueil Toulouse - (France)
• . Bouillon Trypticase soja (Biomérieux)
(§2) Les solutions-mère des produits cités ci-dessous ont été préparées dans l'alcool puis dissoutes dans l'eau distillée stérile de façon à être en final à 200 µg/ml et environ 10° éthanolique (sous lumière jaune). • . Rétinal all Trans • . Rétinal 9 Cis (Sigma R 5754 - lot 62 H 84 43) • . Rétinal 13 Cis (Sigma R 6256 - lot 81 H 8440)
(§3) Une distribution de 100 µl de bouillon Trypticase soja est réalisée dans chaque microcupule de la microplaque stérile (A).
(§4) Un témoin stérilité du milieu et un autre témoin de la vigueur de la souche sont réalisés en parallèle sur la microplaque.
(§5) L'ensemencement de la microplaque (A) a lieu sous la hotte après préparation de l'inoculum bactérien comme suit :
(§6) Les souches ayant été préalablement repiquées la veille sur gélose Trypticase soja, un inoculum 10^8 germes/ml est dispersé dans l'eau distillée stérile puis agité au vortex.
(§7) Les billes de verre assurant une bonne dispersion des souches, la mesure de la densité permet de préparer un inoculum adéquat par rapport à un étalonnage pré-établi et validé.
(§8) La répartition de la souche a lieu dans une deuxième microplaque (B) stérile par distribution de 100 µl d'inoculum par microcupule.
(§9) L'ensemencement a lieu par un repiquage de la microplaque (B) vers la microplaque (A), il se réalise ainsi une dilution au 1/100 de l'inoculum : la microplaque A contenant 10^6 germes par ml, peut être mise à l'étuve 24 h à 32° C.
(§10) La lecture de la plus grande dilution donnant lieu à une clarté identique au témoin stérilité du milieu, constitue la concentration minimale inhibitrice.

St. epidermis [2] = assay: Minimal bactericidal concentration (CMB), subculture of the microplate on trypticase soy agar; type: cell-based; details: subculture 24-48 h at 32° C, second line of each compound in the table
Experimental: (§11) • . Gélose Trypticase soja (Biomérieux)
as §2
(§12) Le repiquage de la microplaque A sur une gélose trypticase soja préalablement coulée, permet après culture de 24-48 h à 32° C, la lecture de la concentration CMB = plus petite concentration ne permettant pas de croissance sur la gélose.

St. aureus [3] = assay: as above; type: cell-based, Staphylococcus aureus; details: subculture 24-48 h at 32° C, second line of each compound in the table
Experimental: as §1, §11, §2, §12

St. epidermis [4] = assay: Minimal inhibitory concentration (CMI), broth microdilution in microplates; type: cell-based; details: 10^6 germes par ml, 24 h at 32° C, first line of each compound in the table
Experimental: as §2, §3, §4, §5, §6, §7, §8, §9, §10

[5] = system: adhésion des Gram positifs aux cornéocytes; assay: Adhesion of staphylococci to corneocytes according to Cole and Silverberg (1986); type: cell-based; details: doses infrabactériostatiques
From the text: Le rétinaldéhyde et ses isomères dont le 9 et le 13 cis-rétinaldéhyde possèdent une activité ciblée sur les Gram positifs, en particulier du genre Staphylococcus dont le staphylocoque doré. […] L'efficacité a pu être mise en évidence par le calcul des concentrations minimales inhibitrices et bactéricides sur des souches polyrésistantes issues de prélèvements cutanés isolés en milieu hospitalier et par études de l'adhésion du staphylocoque aux cornéocytes selon Cole et Silverber (1986).
• 1. Thabaut A. et Meyran M. (1989) Activité bactéricide comparée de quatorze antibiotiques sur staphylococcus aureus. Path. Biol. 37 : 321 - 328. • 2. Cole G.W.; Silvergerg N.L (1986) The adherence of staphylococcus aureus to human corneocytes. Arch. Dermatol. 122 : 166 - 169.

St. aureus 6538 P = assay: Bactericidal kinetics and D. value; type: cell-based, Staphylococcus aureus
Experimental: Le niveau d'efficacité, de l'ordre du microgramme, a été prouvé pour des souches de staphylocoques plurirésistantes notamment aux aminosides, tétracyclines et macrolides. L'efficacité bactéricide a pu être chiffrée. En effet, le rétinal à 0,1% a une D. value (temps nécessaire pour faire chuter la population du nombre de germes) sur Staphylococcus aureus 6538 P de 14,8 minutes avec un coefficient de corrélation de 0,999 en ce qui concerne la droite de régression linéaire reliant la population de germes au temps de contact germe-rétinaldéhyde.
La D. value du Rétinal à 0,1 % P/V dans une solution éthanolique à 20 % V/V a été recherchée sur St. aureus 6538 P.
La cinétique des prélèvements microbiens a été réalisée aux temps 15', 30', 60', 4h et 6h. L'inoculum de départ étant de 1,0.10^4 germes par ml, la neutralisation se réalise d'après les temps cités dans du Bouillon Trypticase Soja, supplémenté par 10 % de Tween 80. Le neutralisant a été validé au préalable.

staphylococcus aureus = details: from reference 1 (Thabaut and Meyran 1989); cited from earlier work

SMILES | CMI (St. aureus [1]) | CMB (St. epidermis [2]) | CMB (St. aureus [3]) | CMI (St. epidermis [4]) | other results
CC1=C(/C=C/C(C)=C\C=C\C(C)=C\C=O)C(C)(C)CCC1 [RETINAL 9 Cis, 9 cis-rétinaldéhyde] | 0,0003% | 0,0006% | 0,0025% | 0,0001% | –
CC1=C(/C=C/C(C)=C/C=C/C(C)=C\C=O)C(C)(C)CCC1 [RETINAL 13 Cis, 13 cis-rétinaldéhyde] | 0,0006% | 0,0006% | 0,0025% | 0,0001% | –
CC1=C(/C=C/C(C)=C/C=C/C(C)=C/C=O)C(C)(C)CCC1 [RETINALDEHYDE ALL TRANS, rétinaldéhyde tout trans] | 0,0003% | 0,0003% | 0,0012% | 0,0001% | –
CC(C=CC=C(C)C=CC1=C(C)CCCC1(C)C)=CC=O [Rétinal, rétinal] | – | – | – | – | inhibition de l'adhésion des Gram positifs aux cornéocytes [5]: activité inhibant d'adhésion des Gram positifs aux cornéocytes; D. value (St. aureus 6538 P; Rétinal 0,1 % P/V in 20 % V/V ethanolic solution, St. aureus 6538 P, linear regression r = 0,99): 14,8 mn; surviving germs, Temps 15 (St. aureus 6538 P; Rétinal 0,1 % P/V in 20 % V/V ethanolic solution, contact 15', starting inoculum 1,0.10^4 germes par ml): 1,4.10^3; surviving germs, Temps 30 (St. aureus 6538 P; Rétinal 0,1 % P/V in 20 % V/V ethanolic solution, contact 30', starting inoculum 1,0.10^4 germes par ml): 1,3.10^2; surviving germs, Temps 60 (St. aureus 6538 P; Rétinal 0,1 % P/V in 20 % V/V ethanolic solution, contact 60', starting inoculum 1,0.10^4 germes par ml): 0; surviving germs, Temps 4h (St. aureus 6538 P; Rétinal 0,1 % P/V in 20 % V/V ethanolic solution, contact 4h, starting inoculum 1,0.10^4 germes par ml): 0; surviving germs, Temps 6h (St. aureus 6538 P; Rétinal 0,1 % P/V in 20 % V/V ethanolic solution, contact 6h, starting inoculum 1,0.10^4 germes par ml): 0; Log, Temps 15 (St. aureus 6538 P; log of surviving germs, Rétinal 0,1 %, contact 15'): 3,15; Log, Temps 30 (St. aureus 6538 P; log of surviving germs, Rétinal 0,1 %, contact 30'): 2,11; D. value (temps nécessaire pour faire chuter la population du nombre de germes) (St. aureus 6538 P; rétinal à 0,1%, Staphylococcus aureus 6538 P, coefficient de corrélation 0,999): 14,8 minutes
CC[C@H]1OC(=O)[C@H](C)[C@@H](O[C@H]2C[C@@](C)(OC)[C@@H](O)[C@H](C)O2)[C@H](C)[C@@H](O[C@@H]2O[C@H](C)C[C@H](N(C)C)[C@H]2O)[C@](C)(O)C[C@@H](C)C(=O)[C@H](C)[C@@H](O)[C@]1(C)O [érythromycine] | – | – | – | – | temps pour faire chuter la population microbienne de 2 Log 10 (staphylococcus aureus): 48 heures
